Like-named read-outs stand apart in the source and are kept apart here.
Columns and labels:
[1] = [^125I]-labeled compounds, normal mice, brain; cited from earlier work
[2] = test system: intracerebral amyloid (aggregated Aβ1-42); test: Confirmation of imaging of amyloid in brain (autoradiogram of brain slice, amyloid injected into amygdaloid nucleus); assay type: in vivo, male Wistar rat; conditions: rat, tail vein injection, brain removed 60 minutes after injection
Procedure: (§1) The following experiment was carried out in order to examine whether amyloid in brain can be imaged by the compound of the present invention.
(§2) (1) Aβ1-42 (Wako) was dissolved in phosphate buffer (pH 7.4) and shaken at 37° C. for 72 hours, to obtain a 1 mg/mL suspension of aggregated Aβ (hereinafter referred to as amyloid suspension in this Example).
(§3) (2) Under thiopental anesthesia, […] of the amyloid suspension was injected into an amygdaloid nucleus on one side of a male Wistar rat (7-week old). As a control, 2.5 μL of a phosphate buffered physiological saline solution (pH 7.4) was injected into an amygdaloid nucleus on the other side of the rat. The rats were examined 1 day after the injection of the amyloid suspension and the phosphate buffered physiological saline solution (pH 7.4).
(§4) This sample solution was injected under thiopental anesthesia into the rat through the tail vein (dosage: 0.5 mL, dosed radioactivity: 16 MBq equivalent).
(§5) (4) Brain was removed 60 minutes after the injection to prepare a brain slice of 10 μm in thickness with a microtome (type: CM3050S, manufactured by LEICA). The brain slice was exposed to an imaging plate for 20 hours, and then image analysis was carried out by use of a Bio-imaging Analyzer (type: BAS-2500; manufactured by FUJIFILM Corporation).

[3] = biological target: T1, intracerebral amyloid (aggregated Aβ1-42) (Homo sapiens, UniProt P05067); test: as above; assay type: in vivo, male Wistar rat; conditions: rat, tail vein injection, brain removed 60 minutes after injection
T1 construct: Aβ1-42 (Wako) was dissolved in phosphate buffer (pH 7.4); purchased Wako
Procedure: as §1, §2, §3, §4, §5

[4] = Transferability into brain and clearance (radioactive accumulation in brain after intravenous injection); conditions: rats
Procedure: Using [^123I]-2-(4′-iodophenyl)-6-methoxyimidazo[1,2-a]pyridine and [^123I]-2-(4′-fluorophenyl)-6-iodoimidazo[1,2-a]pyridine, a time course change of radioactive accumulation in brain of male Wistar rats (7-week old) was measured.
The rats were sacrificed by bleeding from abdominal artery, and brains were removed and subjected to measurement of mass of brains (hereinafter referred to as A in this Example) and further subjected to measurement of radioactivity with a single channel analyzer (detector type: SP-20 manufactured by OHYO KOKEN KOGYO Co., Ltd.) 2, 5, 30 and 60 minutes after the injection. Also, radioactivity (hereinafter referred to as B in this Example) of the rest of the whole body was measured in the same manner as above.
The same procedures as above was conducted and subjected to the same procedures as above to calculate radioactive accumulation per unit weight of a brain (% ID/g) at the respective time points were calculated.
Three animals were used for Example 15, Example 16 and Comparative Example 2 at the respective time points.

[5] = Partition coefficient based on the octanol extraction method (logPoctanol); conditions: octanol / 10 mmol/L phosphate buffer (pH 7.4)
Procedure: 10 μL each of the prepared sample solution was respectively added to 2 mL of octanol, further, 2 mL of 10 mmol/L phosphate buffer (pH 7.4) was added, and stirred for 30 seconds. After the mixture was centrifuged with a low-speed centrifuge (2000 rpm×60 min.), the octanol layer and the water layer were sampled each in an amount of 1 mL, and subjected to measurement of radioactivity count with an autowell gamma system (Type: ARC-301B, manufactured by Aloka). Using the obtained radioactivity count, logPoctanol was calculated in accordance with the equation (2).

[6] = SD rat; for radioactive distribution per unit weight, Adrenal gland, Average / radioactive distribution per unit weight, Blood, Average / radioactive distribution per unit weight, Bone, Average / radioactive distribution per unit weight, Brain, Average / radioactive distribution per unit weight, Heart, Average / radioactive distribution per unit weight, Kidney, Average / radioactive distribution per unit weight, Large intestine, Average / radioactive distribution per unit weight, Liver, Average / radioactive distribution per unit weight, Lung, Average / radioactive distribution per unit weight, Marrow, Average / radioactive distribution per unit weight, Muscle, Average / radioactive distribution per unit weight, Pancreas, Average / radioactive distribution per unit weight, Small intestine, Average / radioactive distribution per unit weight, Spleen, Average / radioactive distribution per unit weight, Stomach, Average: tail vein
Procedure: 0.2 mL each of the prepared sample solution was administered under non-thiopental anesthesia into the tail vein of the above rat. The rats were sacrificed by bleeding from abdominal artery, and each organ shown in Table 4 was removed 5, 30, 60 and 180 minutes after the administration. Each removed organ was subjected to measurement of mass and radioactivity with the same method as in Example 15. Also, radioactivity of the whole body of the rat after removal of the organs (hereinafter, refers to rest of the whole body) was measured. Using these measurement results, radioactive distribution per unit weight of each organ (% ID/g) at the respective time points was calculated in accordance with the following formula (4).
Three animals were used for the experiment at the respective time points.
R^T: Radioactivity of target organ (cpm) RS: Sum of radioactivity of all the organs (cpm)
R^R: Radioactivity of the rest of the whole body (cpm)
M^T: Mass of target organ (g)

[7] = biological target: aggregated Aβ (amyloid) from Aβ1-42 (Homo sapiens, UniProt P05067)
Text: Affinity of the present compounds with amyloid was examined by the following in vitro binding tests.

T1 sequence (P05067 672-713): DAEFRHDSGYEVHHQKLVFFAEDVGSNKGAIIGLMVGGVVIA
Sequence of aggregated Aβ (amyloid) from Aβ1-42 (P05067 672-713): as above

## CN(C)c1ccc(-c2nc3ccc(I)cc3o2)cc1 [IBOX, 6-iodo-2-[4′-(N,N-dimethylamino)phenyl]benzoxazole]
[1]
  clearance from normal tissues: insufficient in clearance from normal tissues

## CN(C)c1ccc(-c2nc3ccc(I)cc3s2)cc1 [TZDM, 6-iodo-2-[4′-(N,N-dimethylamino)phenyl]benzothiazole]
[1]
  clearance from normal tissues: insufficient in clearance from normal tissues

## Fc1ccc(-c2cn3cc([123I])ccc3n2)cc1 [[^123I]-2-(4′-fluorophenyl)-6-iodoimidazo[1,2-a]pyridine]
[2]
  accumulation of radioactivity in amygdaloid nucleus on the side to which the physiological saline solution was injected: no significant accumulation of radioactivity
[3]
  accumulation of radioactivity in amygdaloid nucleus on the side to which the amyloid suspension was injected: marked accumulation of radioactivity
[4]; after 2 min.
  Radioactive accumulation per unit weight in brain: 1.00 % ID/g
[4]; after 5 min.
  Radioactive accumulation per unit weight in brain: 0.72 % ID/g
[4]; after 30 min.
  Radioactive accumulation per unit weight in brain: 0.12 % ID/g
[4]; after 60 min.
  Radioactive accumulation per unit weight in brain: 0.05 % ID/g
[5]
  logPoctanol value: 2.3

## COc1ccc2nc(-c3ccc([123I])cc3)cn2c1 [[^123I]-2-(4′-iodophenyl)-6-methoxyimidazo[1,2-a]pyridine]
[6]; bone
  ratio (% ID/g at 5 minutes after the administration)/(% ID/g at 180 minutes after the administration), bone: 3
[6]; brain
  ratio (% ID/g at 5 minutes after the administration)/(% ID/g at 180 minutes after the administration), brain: 43
[6]; distribution moved from small intestine to large intestine
  excretion / clearance to the outside of the body: biliary-excreted rapidly after the administration
[6]; heart
  ratio (% ID/g at 5 minutes after the administration)/(% ID/g at 180 minutes after the administration), heart: 12
[6]; lung
  ratio (% ID/g at 5 minutes after the administration)/(% ID/g at 180 minutes after the administration), lung: 7
[6]; pancreas
  ratio (% ID/g at 5 minutes after the administration)/(% ID/g at 180 minutes after the administration), pancreas: 8
[6]; 5 min. after administration
  radioactive distribution per unit weight, Adrenal gland, Average: 5.163 % ID/g
  radioactive distribution per unit weight, Blood, Average: 0.290 % ID/g
  radioactive distribution per unit weight, Bone, Average: 0.223 % ID/g
  radioactive distribution per unit weight, Brain, Average: 1.175 % ID/g
  radioactive distribution per unit weight, Heart, Average: 0.752 % ID/g
  radioactive distribution per unit weight, Kidney, Average: 1.434 % ID/g
  radioactive distribution per unit weight, Large intestine, Average: 0.122 % ID/g
  radioactive distribution per unit weight, Liver, Average: 1.857 % ID/g
  radioactive distribution per unit weight, Lung, Average: 1.109 % ID/g
  radioactive distribution per unit weight, Marrow, Average: 0.937 % ID/g
  radioactive distribution per unit weight, Muscle, Average: 0.344 % ID/g
  radioactive distribution per unit weight, Pancreas, Average: 0.709 % ID/g
  radioactive distribution per unit weight, Small intestine, Average: 0.729 % ID/g
  radioactive distribution per unit weight, Spleen, Average: 0.460 % ID/g
  radioactive distribution per unit weight, Stomach, Average: 0.203 % ID/g
[6]; 30 min. after administration
  radioactive distribution per unit weight, Adrenal gland, Average: 2.364 % ID/g
  radioactive distribution per unit weight, Blood, Average: 0.240 % ID/g
  radioactive distribution per unit weight, Bone, Average: 0.136 % ID/g
  radioactive distribution per unit weight, Brain, Average: 0.220 % ID/g
  radioactive distribution per unit weight, Heart, Average: 0.220 % ID/g
  radioactive distribution per unit weight, Kidney, Average: 2.102 % ID/g
  radioactive distribution per unit weight, Large intestine, Average: 0.096 % ID/g
  radioactive distribution per unit weight, Liver, Average: 1.197 % ID/g
  radioactive distribution per unit weight, Lung, Average: 0.410 % ID/g
  radioactive distribution per unit weight, Marrow, Average: 0.285 % ID/g
  radioactive distribution per unit weight, Muscle, Average: 0.092 % ID/g
  radioactive distribution per unit weight, Pancreas, Average: 0.338 % ID/g
  radioactive distribution per unit weight, Small intestine, Average: 3.964 % ID/g
  radioactive distribution per unit weight, Spleen, Average: 0.207 % ID/g
  radioactive distribution per unit weight, Stomach, Average: 1.081 % ID/g
[6]; 60 min. after administration
  radioactive distribution per unit weight, Adrenal gland, Average: 1.775 % ID/g
  radioactive distribution per unit weight, Blood, Average: 0.203 % ID/g
  radioactive distribution per unit weight, Bone, Average: 0.102 % ID/g
  radioactive distribution per unit weight, Brain, Average: 0.111 % ID/g
  radioactive distribution per unit weight, Heart, Average: 0.134 % ID/g
  radioactive distribution per unit weight, Kidney, Average: 1.630 % ID/g
  radioactive distribution per unit weight, Large intestine, Average: 0.099 % ID/g
  radioactive distribution per unit weight, Liver, Average: 0.836 % ID/g
  radioactive distribution per unit weight, Lung, Average: 0.243 % ID/g
  radioactive distribution per unit weight, Marrow, Average: 0.000 % ID/g
  radioactive distribution per unit weight, Muscle, Average: 0.062 % ID/g
  radioactive distribution per unit weight, Pancreas, Average: 0.247 % ID/g
  radioactive distribution per unit weight, Small intestine, Average: 5.924 % ID/g
  radioactive distribution per unit weight, Spleen, Average: 0.154 % ID/g
  radioactive distribution per unit weight, Stomach, Average: 1.476 % ID/g
[6]; 180 min. after administration
  radioactive distribution per unit weight, Adrenal gland, Average: 0.754 % ID/g
  radioactive distribution per unit weight, Blood, Average: 0.139 % ID/g
  radioactive distribution per unit weight, Bone, Average: 0.070 % ID/g
  radioactive distribution per unit weight, Brain, Average: 0.027 % ID/g
  radioactive distribution per unit weight, Heart, Average: 0.061 % ID/g
  radioactive distribution per unit weight, Kidney, Average: 0.643 % ID/g
  radioactive distribution per unit weight, Large intestine, Average: 3.294 % ID/g
  radioactive distribution per unit weight, Liver, Average: 0.374 % ID/g
  radioactive distribution per unit weight, Lung, Average: 0.163 % ID/g
  radioactive distribution per unit weight, Marrow, Average: 0.000 % ID/g
  radioactive distribution per unit weight, Muscle, Average: 0.027 % ID/g
  radioactive distribution per unit weight, Pancreas, Average: 0.088 % ID/g
  radioactive distribution per unit weight, Small intestine, Average: 2.870 % ID/g
  radioactive distribution per unit weight, Spleen, Average: 0.084 % ID/g
  radioactive distribution per unit weight, Stomach, Average: 1.272 % ID/g
[2]
  accumulation of radioactivity in amygdaloid nucleus on the side to which the physiological saline solution was injected: no significant accumulation of radioactivity
[3]
  accumulation of radioactivity in amygdaloid nucleus on the side to which the amyloid suspension was injected: marked accumulation of radioactivity
[4]; after 2 min.
  Radioactive accumulation per unit weight in brain: 1.26 % ID/g
[4]; after 5 min.
  Radioactive accumulation per unit weight in brain: 0.89 % ID/g
[4]; after 30 min.
  Radioactive accumulation per unit weight in brain: 0.19 % ID/g
[4]; after 60 min.
  Radioactive accumulation per unit weight in brain: 0.09 % ID/g
[5]
  logPoctanol value: 2.3

## COc1ccc(-c2cn3cc([123I])ccc3n2)cc1 [[^123I]-6-iodo-2-(4′-methoxyphenyl)imidazo[1,2-a]pyridine]
[2]
  accumulation of radioactivity in amygdaloid nucleus on the side to which the physiological saline solution was injected: no significant accumulation of radioactivity
[3]
  accumulation of radioactivity in amygdaloid nucleus on the side to which the amyloid suspension was injected: marked accumulation of radioactivity
[4]; after 2 min.
  Radioactive accumulation per unit weight in brain: 1.04 % ID/g
[4]; after 5 min.
  Radioactive accumulation per unit weight in brain: 0.72 % ID/g
[4]; after 30 min.
  Radioactive accumulation per unit weight in brain: 0.12 % ID/g
[4]; after 60 min.
  Radioactive accumulation per unit weight in brain: 0.04 % ID/g
[5]
  logPoctanol value: 1.7

## CN(C)c1ccc(-c2cn3cc([123I])ccc3n2)cc1 [[^123I]-IMPY, reference compound]
[4]; after 2 min.
  Radioactive accumulation per unit weight in brain: 1.19 % ID/g
[4]; after 5 min.
  Radioactive accumulation per unit weight in brain: 0.97 % ID/g
[4]; after 30 min.
  Radioactive accumulation per unit weight in brain: 0.23 % ID/g
[4]; after 60 min.
  Radioactive accumulation per unit weight in brain: 0.09 % ID/g
[5]
  logPoctanol value: 1.9

## COc1ccc2nc(-c3ccc([125I])cc3)cn2c1 [[^125I]-2 (4′-iodophenyl)-6-methoxyimidazo[1,2-a]pyridine]
[7]; amyloid 25, 62.5, 250, 625 and 1000 nmol/L, 22° C., 3 hours, non-specific count B subtracted
  radioactive count specifically attached to amyloid (A−B) versus concentration of amyloid: increase proportionally to the concentration of amyloid
[7]; conclusion from in vitro binding test
  capability of binding to amyloid: highly capable of binding to amyloid

## CN(C)c1ccc(/C=C/c2ccc(I)cc2)cc1 [m-I-SB, (E)-4-dimethylamino-4′-iodostilbene]
[1]
  clearance from normal tissues: insufficient in clearance from normal tissues

From patent publication US20100216994A1, “USE OF NOVEL COMPOUND HAVING AFFINITY FOR AMYLOID, AND PROCESS FOR PRODUCTION OF THE SAME” (NIHON MEDI-PHYSICS CO., LTD., priority 2007, published 2010)
